Results taken from US20240199618A1, “NOVEL N-ACYL-[3-SUBSTITUTED]-[8-SUBSTITUTED]-5,6-DIHYDRO-[1,2,4]TRIAZOLO[4,3-a]PYRAZINES AS SELECTIVE NK-3 RECEPTOR ANTAGONISTS, PHARMACEUTICAL COMPOSITION, METHODS FOR USE IN NK-3 RECEPTOR-MEDIATED DISORDERS” (Ogeda SA, priority 2013, published 2024).
Where two headings read alike, the source gives them in different places.

What was measured:
human NK-1 receptor = human NK-1 receptor (Homo sapiens (Human), UniProt P25103); test: Selectivity assay: [3H] substance P binding, human NK-1 receptor; details: 2 nM [3H] substance P, CHO membranes; read-out: hNK-1 (Ki)
Sequence of human NK-1 receptor (P25103 whole entry): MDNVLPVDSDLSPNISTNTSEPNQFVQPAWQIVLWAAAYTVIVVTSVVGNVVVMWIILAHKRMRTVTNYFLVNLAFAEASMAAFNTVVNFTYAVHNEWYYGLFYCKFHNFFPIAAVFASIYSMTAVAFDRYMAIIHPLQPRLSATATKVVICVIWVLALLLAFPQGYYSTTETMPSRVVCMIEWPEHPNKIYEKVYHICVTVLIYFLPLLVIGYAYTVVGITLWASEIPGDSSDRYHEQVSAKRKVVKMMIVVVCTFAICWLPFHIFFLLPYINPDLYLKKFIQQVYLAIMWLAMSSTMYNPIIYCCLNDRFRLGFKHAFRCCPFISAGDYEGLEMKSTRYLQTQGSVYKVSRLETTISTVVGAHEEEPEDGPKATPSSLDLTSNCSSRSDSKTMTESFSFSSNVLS
Method: Selectivity of the compounds of the invention was determined over the other human NK receptors, namely NK-1 and NK-2 receptors.
The affinity of compounds of the invention for the NK-1 receptor was evaluated in CHO recombinant cells which express the human NK-1 receptor. Membrane suspensions were prepared from these cells. The following radioligand: [^3H] substance P (PerkinElmer Cat #NET111520) was used in this assay. Binding assays were performed in a 50 mM Tris/5 mM MnCl2/150 mM NaCl/0.1% BSA at pH 7.4. Binding assays consisted of 25 μl of membrane suspension (approximately 5 μg of protein/well in a 96 well plate), 50 μl of compound or reference ligand (Substance P) at increasing concentrations (diluted in assay buffer) and 2 nM [^3H] substance P. The plate was incubated 60 min at 25° C. in a water bath and then filtered over GF/C filters (Perkin Elmer, 6005174, presoaked in 0.5% PEI for 2 h at room temperature) with a Filtration unit (Perkin Elmer). The radioactivity retained on the filters was measured by using the TopCount-NXT reader (Packard).

human NK-3 receptor [1] = biological target: T1, human NK-3 receptor (Homo sapiens (Human), UniProt P29371); test: Aequorin functional assay with human NK-3 receptor (antagonist testing vs NKA); format: cell-based; details: CHO cells, NKA at EC80 (3 nM); read-out: Functional assay: Aequorin assay with human NK-3 receptor hNK-3-AEQ (antagonist IC50)
T1 sequence (P29371 whole entry): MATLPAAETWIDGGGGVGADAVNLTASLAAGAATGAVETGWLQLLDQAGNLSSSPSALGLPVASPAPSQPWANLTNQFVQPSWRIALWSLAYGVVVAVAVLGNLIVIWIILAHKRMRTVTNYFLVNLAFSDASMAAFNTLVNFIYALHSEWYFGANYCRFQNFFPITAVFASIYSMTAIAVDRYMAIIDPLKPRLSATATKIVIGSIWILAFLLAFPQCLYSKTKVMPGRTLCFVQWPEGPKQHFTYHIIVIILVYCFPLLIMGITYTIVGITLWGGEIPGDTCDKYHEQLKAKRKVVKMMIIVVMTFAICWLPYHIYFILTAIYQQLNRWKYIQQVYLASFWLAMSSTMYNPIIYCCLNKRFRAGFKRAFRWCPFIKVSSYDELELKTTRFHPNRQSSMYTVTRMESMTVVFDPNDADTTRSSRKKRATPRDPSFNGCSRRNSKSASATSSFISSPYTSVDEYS
Method: Aequorin Assay with Human NK-3 Receptor
Changes in intracellular calcium levels are a recognized indicator of G protein-coupled receptor activity. The efficacy of compounds of the invention to inhibit NKA-mediated NK-3 receptor activation was assessed by an in vitro Aequorin functional assay. Chinese Hamster Ovary recombinant cells expressing the human NK-3 receptor and a construct that encodes the photoprotein apoaequorin were used for this assay. In the presence of the cofactor coelenterazine, apoaequorin emits a measurable luminescence that is proportional to the amount of intracellular (cytoplasmic) free calcium.
The antagonist activity of compounds of the invention is measured following pre-incubation (3 minutes) of the compound (at various concentrations) with the cells, followed by addition of the reference agonist (NKA) at a final concentration equivalent to the EC80 (3 nM) and recording of emitted light (FDSS 6000 Hamamatsu) over the subsequent 90-second period. The intensity of the emitted light is integrated using the reader software. Compound antagonist activity is measured based on the concentration-dependent inhibition of the luminescence response to the addition of Neurokinin A.

human NK-3 receptor [2] = biological target: T1, human NK-3 receptor; test: 3H-SB222200 binding competition assay with human NK-3 receptor
Method: The affinity of compounds of the invention for the human NK-3 receptor was determined by measuring the ability of compounds of the invention to competitively and reversibly displace a well-characterized NK-3 radioligand in a concentration-dependent manner.
^3H-SB222200 Binding Competition Assay with Human NK-3 Receptor
Membranes were prepared from Chinese hamster ovary recombinant cells stably expressing the human NK-3 receptor. The membranes were incubated with 5 nM ^3H-SB222200 (ARC) in a HEPES 25 mM/NaCl 0.1M/CaCl2 1 mM/MgCl2 5 mM/BSA 0.5%/Saponin 10 μg/ml buffer at pH 7.4 and various concentrations of compounds of the invention. The amount of ^3H-SB222200 bound to the receptor was determined after filtration by the quantification of membrane associated radioactivity using the TopCount-NXT reader (Packard).

plasma protein = test: Determination of plasma protein binding (equilibrium dialysis, RED); format: in vitro ADME; details: 4 hours at 37° C.
From the text: Determination of plasma protein binding The pharmacokinetic and pharmacodynamic properties of chemicals/drugs are largely a function of the reversible binding of chemicals to plasma or serum proteins. […] Consequently, the extent of the plasma protein binding (PPB) of a compound influences its action as well as its distribution and elimination.
The determination of plasma protein binding (PPB) of a compound is enabled by equilibrium dialysis, an accepted and standard method for reliable estimation of the non-bound drug fraction in plasma. RED (Rapid Equilibrium Dialysis) device insert is made of two side-by-side chambers separated by an O-ring-sealed vertical cylinder of dialysis membrane (MWCO ˜8,000). […] After 4 hours incubation at 37° C. under shaking, an aliquot is removed from each chamber and analyzed by a LC-MS/MS procedure enables the determination of both free and bound drug.
The “free fraction” may be calculated as 100%−% rPPB (i.e. the complementary percentage of that disclosed in Table 4, corresponding to the drug concentration that is unbound and therefore available to engage biological target and elicit pharmacological activity).

human NK-2 receptor = human NK-2 receptor (Homo sapiens (Human), UniProt P21452); test: Selectivity assay: [125I]-Neurokinin A binding, human NK-2 receptor; details: 0.1 nM [125I]-Neurokinin A, CHO membranes; read-out: hNK-2 (Ki)
Sequence of human NK-2 receptor (P21452 whole entry): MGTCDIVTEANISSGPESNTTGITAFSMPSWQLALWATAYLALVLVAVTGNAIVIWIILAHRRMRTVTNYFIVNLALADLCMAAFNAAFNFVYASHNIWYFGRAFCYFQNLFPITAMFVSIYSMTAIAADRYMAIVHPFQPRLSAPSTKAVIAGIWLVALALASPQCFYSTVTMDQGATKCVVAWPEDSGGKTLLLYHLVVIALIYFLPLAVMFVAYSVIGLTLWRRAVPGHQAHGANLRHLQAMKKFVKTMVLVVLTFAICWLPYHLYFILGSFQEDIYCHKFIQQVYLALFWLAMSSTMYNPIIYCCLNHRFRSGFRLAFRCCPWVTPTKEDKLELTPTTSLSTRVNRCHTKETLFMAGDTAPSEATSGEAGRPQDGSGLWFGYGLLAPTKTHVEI
Method: The affinity of compounds of the invention for the NK-2 receptor was evaluated in CHO recombinant cells which express the human NK-2 receptor. Membrane suspensions were prepared from these cells. […] Binding assays were performed in a 25 mM HEPES/1 mM CaCl2)/5 mM MgCl2/0.5% BSA/10 μg/ml saponin, at pH 7.4. […] The radioactivity retained on the filters was measured by using the TopCount-NXT reader (Packard).

[3] = tested on: circulating levels of luteinizing hormone (LH); test: Castrated male rat model, circulating luteinizing hormone (LH); format: in vivo; details: single oral dose less than or equal to 30 mg/kg, p<0.05
Method: Castrated Male Rat Model to Assess the Effect of Compound of Invention on Circulating Levels of Luteinizing Hormone (LH)
The effect of compounds of the invention to inhibit luteinizing hormone (LH) secretion is determined by the following biological studies.
In humans and rodents, castration is well-precedented to permit heightened, persistent GnRH signaling and consequent elevation of circulating LH. Thus, a castrated rat model is used to provide a broad index for measurement of LH inhibition as a marker of test compound inhibition of the GnRH signaling pathway.
Castrated adult male Sprague-Dawley (SD) rats (150-175 g,) were purchased from Janvier (St Berthevin, France). All animals were housed 2 per cage in a temperature-controlled room (22±2° C.) and 50±5% relative humidity with a 12 hour/12 hour light/dark cycles (lights off at […]). The animals were allowed 3 weeks of postoperative recovery prior to study. Animals were handled on a daily basis. Standard diet and tap water were provided ad libitum. Animal cage litters were changed once a week. On the study day, animals were acclimated to the procedure room for a period of one hour prior to the initiation of the experiment.
Compounds of the invention were formulated in 0.5% methyl cellulose.
After basal sampling (TO) a single dose of compounds of the invention or vehicle was administrated orally to rats. Blood samples were then collected at several time points post dosing (45, 90, 150, 300 and 420 minutes). Blood samples were obtained via tail vein bleed, drawn into EDTA-containing tubes and centrifuged immediately. Plasma samples were collected and stored in a −80° C. freezer until assayed. Serum LH levels were determined using radioimmunoassay kit from RIAZEN—Rat L H, Zentech (Liege, Belgium). Baseline was defined as the initial basal blood sample.

[4] = Table 2, 5 nM 3H-SB222200, CHO membranes, read-out: Competitive binding assay with human NK-3 receptor hNK-3 (Ki)
[5] = Table 3 (selectivity table), read-out: hNK-3 (Ki)

Structure (SMILES)	Ki (human NK-1 receptor) [nM]	IC50 (human NK-3 receptor [1]) [nM]	Ki (human NK-3 receptor [2]; [4]) [nM]	Ki (human NK-3 receptor [2]; [5]) [nM]	Exposure (% rPPB), bound drug fraction to plasma protein (plasma protein) [%]	Ki (human NK-2 receptor) [nM]	circulating LH levels [3]
Cc1nsc(-c2nnc3n2CCN(C(=O)c2ccc(C#N)cc2)[C@@H]3C)n1 [Compound 29, (R)-4-(8-methyl-3-(3-methyl-1,2,4-thiadiazol-5-yl)-5,6,7,8-tetrahydro-[1,2,4]triazolo[4,3-a]pyrazine-7-carbonyl)benzonitrile]	> 30000	170	150	150	10	> 30000	
C[C@@H]1c2nnc(-c3nc(C(F)F)ns3)n2CCN1C(=O)c1ccc(F)cc1 [Compound 42, (R)-(3-(3-(difluoromethyl)-1,2,4-thiadiazol-5-yl)-8-methyl-5,6-dihydro-[1,2,4]triazolo[4,3-a]pyrazin-7(8H)-yl)(4-fluorophenyl)methanone]	> 30000	39	48	48	16	> 30000	
C[C@@H]1c2nnc(-c3nc(C(C)(F)F)no3)n2CCN1C(=O)c1ccc(F)cc1 [Compound 43, (R)-(3-(3-(1,1-difluoroethyl)-1,2,4-oxadiazol-5-yl)-8-methyl-5,6-dihydro-[1,2,4]triazolo[4,3-a]pyrazin-7(8H)-yl)(4-fluorophenyl)methanone]	> 30000	136	59	59	47	> 30000	
C[C@@H]1c2nnc(-c3nc(CC(F)(F)F)no3)n2CCN1C(=O)c1ccc(F)cc1 [Compound 44, (R)-(4-fluorophenyl)(8-methyl-3-(3-(2,2,2-trifluoroethyl)-1,2,4-oxadiazol-5-yl)-5,6-dihydro-[1,2,4]triazolo[4,3-a]pyrazin-7(8H)-yl)methanone]	> 30000	204	45	45	31	> 30000	
CC(F)c1noc(-c2nnc3n2CCN(C(=O)c2ccc(F)cc2)[C@@H]3C)n1 (stereo partly drawn) [Compound 45, ((8R)-3-(3-(1-fluoroethyl)-1,2,4-oxadiazol-5-yl)-8-methyl-5,6-dihydro-[1,2,4]triazolo[4,3-a]pyrazin-7(8H)-yl)(4-fluorophenyl)methanone]	> 30000	244	101	101	31	> 30000	

Now from value to molecule, other results behind:

Ki (human NK-1 receptor) [nM]	IC50 (human NK-3 receptor [1]) [nM]	Ki (human NK-3 receptor [2]; [4]) [nM]	Ki (human NK-3 receptor [2]; [5]) [nM]	Exposure (% rPPB), bound drug fraction to plasma protein (plasma protein) [%]	Ki (human NK-2 receptor) [nM]	Structure (SMILES)	circulating LH levels [3]
10300	16	11	11	67	7500	Cc1nsc(-c2nnc3n2CCN(C(=O)c2ccc(Cl)c(Cl)c2)[C@@H]3C)n1 [Compound 1, (R)-(3,4-dichlorophenyl)(8-methyl-3-(3-methyl-1,2,4-thiadiazol-5-yl)-5,6-dihydro-[1,2,4]triazolo[4,3-a]pyrazin-7(8H)-yl)methanone]	significantly suppressed
23800	12	15	15	47	> 30000	CCc1nsc(-c2nnc3n2CCN(C(=O)c2ccc(F)cc2)[C@@H]3C)n1 [Compound 2, (R)-(3-(3-ethyl-1,2,4-thiadiazol-5-yl)-8-methyl-5,6-dihydro-[1,2,4]triazolo[4,3-a]pyrazin-7(8H)-yl)(4-fluorophenyl)methanone]	significantly suppressed
> 30000	93	60	60		> 30000	Cc1nsc(-c2nnc3n2CCN(C(=O)c2ccccc2)[C@@H]3C)n1 [Compound 20, (R)-(8-methyl-3-(3-methyl-1,2,4-thiadiazol-5-yl)-5,6-dihydro-[1,2,4]triazolo[4,3-a]pyrazin-7(8H)-yl)(phenyl)methanone]	significantly suppressed
> 30000	74	88	88	19	> 30000	Cc1nsc(-c2nnc3n2CCN(C(=O)c2ccccc2C)[C@@H]3C)n1 [Compound 26, (R)-(8-methyl-3-(3-methyl-1,2,4-thiadiazol-5-yl)-5,6-dihydro-[1,2,4]triazolo[4,3-a]pyrazin-7(8H)-yl)(o-tolyl)methanone]	
> 30000	160	110	110	12	> 30000	Cc1noc(-c2nnc3n2CCN(C(=O)c2ccc(F)cc2)[C@@H]3C)n1 [Compound 28, (R)-(4-fluorophenyl)(8-methyl-3-(3-methyl-1,2,4-oxadiazol-5-yl)-5,6-dihydro-[1,2,4]triazolo[4,3-a]pyrazin-7(8H)-yl)methanone]	
40000	5	7	7	94		CCc1noc(-c2nnc3n2CCN(C(=O)c2ccc(-c4cccs4)cc2)[C@@H]3C)n1 [Compound 30, (R)-(3-(3-ethyl-1,2,4-oxadiazol-5-yl)-8-methyl-5,6-dihydro-[1,2,4]triazolo[4,3-a]pyrazin-7(8H)-yl)(4-(thiophen-2-yl)phenyl)methanone]	significantly suppressed
